Source: patent US7884242B2, “N-heterocyclylphthaldiamides as insecticides” (Bayer CropScience AG, priority 2004, dated 2011)

How the values were obtained:
[1] = log P determination by HPLC on reverse phase column, pH 2.3; type: physicochemical; details: reverse phase HPLC column (C 18), reverse phase column (C 18), pH 2.3, 43° C.
How it was run: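 Reverse-phase C18 HPLC at 43 °C per EEC directive 79/831 Annex V.A8, eluting with 0.1% aqueous phosphoric acid (pH 2.3) and a linear 10–95% acetonitrile gradient. log P read from retention time by linear interpolation between two sequential unbranched alkan-2-ones (C3–C16) of known log P.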

[2] = system: green peach aphid (Myzus persicae); assay: Myzus test (spray treatment); type: in vivo; details: for pest or weed control at 100 g/ha: Myzus persicae, in Brassica oleracea, 120 h, spray treatment, China cabbage slices, after 5 d, read-out: Death rate in % after 5d; for activity in Myzus test (spray treatment): statement in words
How it was run: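 Chinese cabbage slices infested with all aphid stages were sprayed with compound formulated in solvent and emulsifier and diluted in emulsifier-containing water. After a set time, percent mortality was scored: 100% means all aphids killed, 0% none killed.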

[3] = system: larvae of the mustard leaf beetle (Phaedon cochleariae); assay: Phaedon test (spray treatment); type: in vivo; details: for pest or weed control at 4 g/ha: Phaedon cochleariae, 168 h, spray treatment, China cabbage slices, after 7 d, read-out: Death rate in % after 7d; for activity in Phaedon test (spray treatment): statement in words
Protocol: [table] For the preparation of a suitable active compound formulation 1 part by weight of the active compound is mixed with the above amounts of solvent and emulsifier and the concentrate is diluted to the desired concentration with water containing emulsifier. China cabbage slices (Brassica pekinensis) are sprayed with an active compound preparation of the desired composition and after drying infected with larvae of the mustard leaf beetle (Phaedon cochleariae). After the desired time the activity in % is determined. Here 100% means that all beetle larvae were killed; 0% means that no beetle larvae were killed.

[4] = system: caterpillars of the fall army worm (Spodoptera frugiperda); assay: Spodoptera frugiperda test (spray treatment); type: in vivo; details: for pest or weed control at 4 g/ha: Spodoptera frugiperda, 168 h, spray treatment, maize leaf sections, after 7 d, read-out: Death rate in % after 7d; for activity in Spodoptera frugiperda test (spray treatment): statement in words
How it was run: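 Maize leaf sections sprayed with emulsified aqueous compound preparation at the desired concentration, dried, then infested with fall armyworm caterpillars. Activity scored after the set time as % kill (100% all caterpillars dead, 0% none).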

[5] = system: two-spotted spider mite (Tetranychus urticae); assay: Tetranychus Test OP resistant; type: in vivo
Protocol: [table] For the preparation of a suitable active compound formulation 1 part by weight of the active compound is mixed with the above amounts of solvent and emulsifier and the concentrate is diluted to the desired concentration with water containing emulsifier. Bean leaf slices (Phaseolus vulgaris) that are infested by all stages of the two-spotted spider mite (Tetranychus urticae) are sprayed with an active substance preparation at the desired concentration. After the desired time the action in % is determined. Here 100% means that all spider mites were killed; 0% means that no spider mites were killed.

[6] = system: caterpillars of the beet army worm (Spodoptera exigua); assay: Spodoptera exigua test (resistant strain); type: in vivo
Protocol: [table] For the preparation of a suitable active compound formulation 1 part by weight of the active compound is mixed with the above amounts of solvent and emulsifier and the concentrate is diluted to the desired concentration with water containing emulsifier. Cabbage leaves (Brassica oleracea) are treated by dipping in the active compound preparation at the desired concentration and infected with caterpillars of the beet army worm (Spodoptera exigua) while the leaves are still moist. After the desired time the death rate in % is determined. Here 100% means that all caterpillars were killed; 0% means that no caterpillars were killed.

[7] = system: caterpillars of the cotton boll worm (Heliothis armigera); assay: Heliothis armigera test; type: in vivo
Protocol: [table] For the preparation of a suitable active compound formulation 1 part by weight of the active compound is mixed with the above amounts of solvent and emulsifier and the concentrate is diluted to the desired concentration with water containing emulsifier. Soy bean leaves (Glycine max.) are treated by dipping into the active compound preparation at the desired concentration and infected with the caterpillars of the cotton boll worm (Heliothis armigera), while the leaves are still wet. After the desired time the death rate in % is determined. Here 100% means that all caterpillars were killed; 0% means that no caterpillars were killed.

[8] = system: caterpillars of the diamond back moth (Plutella xylostella); assay: Plutella test; type: in vivo
Protocol: [table] For the preparation of a suitable active compound formulation 1 part by weight of the active compound is mixed with the above amounts of solvent and emulsifier and the concentrate is diluted to the desired concentration with water containing emulsifier. Cabbage leaves (Brassica oleracea) are treated by dipping into the active compound preparation of the desired concentration and infected with caterpillars of the diamond back moth (Plutella xylostella) while the leaves were still wet. After the desired time the death rate is determined as %. Here 100% means that all caterpillars were killed; 0% means no caterpillars were killed.

SMILES | chromatographic logP [1] | pest or weed control at 100 g/ha [2] | activity in Myzus test (spray treatment) [2] | pest or weed control at 4 g/ha [3] | activity in Phaedon test (spray treatment) [3] | pest or weed control at 4 g/ha [4] | activity in Spodoptera frugiperda test (spray treatment) [4] | Death rate in % after 5d ([5]; 100 g/ha, OP resistant, bean leaf slices sprayed, after 5 d) | activity in Tetranychus Test OP resistant ([5]; statement in words) | Death rate in % after 7d ([6]; 4 ppm, resistant strain, cabbage leaves dipped, after 7 d) | activity in Spodoptera exigua test (resistant strain) ([6]; statement in words) | Death rate in % after 7d ([7]; 0.8 ppm, soy bean leaves dipped, after 7 d) | activity in Heliothis armigera test ([7]; statement in words) | Death rate in % after 7d ([8]; 0.8 ppm, cabbage leaves dipped, after 7 d) | activity in Plutella test ([8]; statement in words)
CSC[C@H](C)NC(=O)c1c(Cl)cccc1C(=O)Nc1cnc(Cn2cc(C(F)(F)C(F)(F)F)c(C(F)(F)C(F)(F)F)n2)nc1C [Example 64] | 4.11 | 100% | good activity | 100% | good activity | 100% | good activity | 100% | good activity | – | – | – | – | – | –
Cc1nc(Cn2cc(C(F)(F)C(F)(F)F)c(C(F)(F)C(F)(F)F)n2)ncc1NC(=O)c1cccc(Cl)c1C(=O)N[C@@H](C)CS(C)(=O)=O [Example 66] | 3.29 | 100% | good activity | 100% | good activity | 100% | good activity | – | – | 100% | good activity | 80% | good activity | 100% | good activity
